PubChem BioAssay (NCI)
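Five compound concentrations were applied to cells in 96-well plates for 48 hours; endpoints were derived by simple linear interpolation of the resulting dose-response curve. The concentration for full growth arrest is given as TGI.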

What follows are compounds tested on T-47D breast (assay: growth of human tumour cells (NCI), 48 h).
For `COc1cc(OC)c2c(c1-c1ccc(C)cc1)CC(C)N(Cc1ccccc1)[C@H]2C` (some centres not stated), the TGI was over 100 µM.
With `Cc1ccc(-n2c(=O)c3nn4c(=O)n(-c5ccc(C)cc5)c(=O)c4nn3c2=O)cc1` the TGI was over 100 µM.
Compound `CN(CCCCCl)P(=O)(OCC1=CC(=O)c2ccccc2C1=O)OC[C@H]1O[C@@H](n2cc(F)c(=O)[nH]c2=O)C[C@@H]1O` (some centres not stated) has a TGI of 3.65 µM.

These compounds were tested on HCT-116 colon (assay: growth of human tumour cells (NCI), 48 h).
With `Cc1ccc(S(=O)(=O)NC(=O)NC(C(=O)O)C(C)C)cc1` (configuration not stated) the TGI was over 100 µM.
`Cc1nn(C(=O)c2ccccc2O)c2c1C(c1ccc3ccccc3c1O)SC(N)=N2` (configuration not stated) gave a TGI of over 10 µM.
For `COc1cc(OC)c2c(c1-c1ccc(C)cc1)CC(C)N(Cc1ccccc1)[C@H]2C` (some centres not stated), the TGI was over 100 µM.
In the case of `Cc1ccc(-n2c(=O)c3nn4c(=O)n(-c5ccc(C)cc5)c(=O)c4nn3c2=O)cc1`, the TGI is reported as over 100 µM.
`CN(CCCCCl)P(=O)(OCC1=CC(=O)c2ccccc2C1=O)OC[C@H]1O[C@@H](n2cc(F)c(=O)[nH]c2=O)C[C@@H]1O` (some centres not stated) showed a TGI of 13.5 µM.

The compounds below were run on HCT-15 colon (assay: growth of human tumour cells (NCI), 48 h).
`Cc1ccc(S(=O)(=O)NC(=O)NC(C(=O)O)C(C)C)cc1` (configuration not stated) showed a TGI of over 100 µM.
Compound `Cc1nn(C(=O)c2ccccc2O)c2c1C(c1ccc3ccccc3c1O)SC(N)=N2` (configuration not stated) has a TGI of over 10 µM.
`COc1cc(OC)c2c(c1-c1ccc(C)cc1)CC(C)N(Cc1ccccc1)[C@H]2C` (some centres not stated) was tested, and the TGI was over 100 µM.
`Cc1ccc(-n2c(=O)c3nn4c(=O)n(-c5ccc(C)cc5)c(=O)c4nn3c2=O)cc1` was tested, and the TGI was over 100 µM.
`CN(CCCCCl)P(=O)(OCC1=CC(=O)c2ccccc2C1=O)OC[C@H]1O[C@@H](n2cc(F)c(=O)[nH]c2=O)C[C@@H]1O` (some centres not stated) showed a TGI of 20.3 µM.

What follows are compounds tested on HL-60(TB) leukemia (assay: growth of human tumour cells (NCI), 48 h).
`Cc1ccc(S(=O)(=O)NC(=O)NC(C(=O)O)C(C)C)cc1` (configuration not stated) showed a TGI of over 100 µM.
For `COc1cc(OC)c2c(c1-c1ccc(C)cc1)CC(C)N(Cc1ccccc1)[C@H]2C` (some centres not stated), the TGI was 43.4 µM.
In the case of `Cc1ccc(-n2c(=O)c3nn4c(=O)n(-c5ccc(C)cc5)c(=O)c4nn3c2=O)cc1`, the TGI is reported as over 100 µM.
For `CN(CCCCCl)P(=O)(OCC1=CC(=O)c2ccccc2C1=O)OC[C@H]1O[C@@H](n2cc(F)c(=O)[nH]c2=O)C[C@@H]1O` (some centres not stated), the TGI was 16.5 µM.

What follows are compounds tested on OVCAR-4 ovarian (assay: growth of human tumour cells (NCI), 48 h).
Compound `Cc1ccc(S(=O)(=O)NC(=O)NC(C(=O)O)C(C)C)cc1` (configuration not stated) has a TGI of over 100 µM.
`Cc1nn(C(=O)c2ccccc2O)c2c1C(c1ccc3ccccc3c1O)SC(N)=N2` (configuration not stated) was tested, and the TGI was over 10 µM.
`Cc1ccc(-n2c(=O)c3nn4c(=O)n(-c5ccc(C)cc5)c(=O)c4nn3c2=O)cc1` gave a TGI of over 100 µM.
For `CN(CCCCCl)P(=O)(OCC1=CC(=O)c2ccccc2C1=O)OC[C@H]1O[C@@H](n2cc(F)c(=O)[nH]c2=O)C[C@@H]1O` (some centres not stated), the TGI was 14.9 µM.

Each compound was assayed on IGROV1 ovarian (assay: growth of human tumour cells (NCI), 48 h).
In the case of `Cc1ccc(S(=O)(=O)NC(=O)NC(C(=O)O)C(C)C)cc1` (configuration not stated), the TGI is reported as over 100 µM.
With `Cc1nn(C(=O)c2ccccc2O)c2c1C(c1ccc3ccccc3c1O)SC(N)=N2` (configuration not stated) the TGI was over 10 µM.
`COc1cc(OC)c2c(c1-c1ccc(C)cc1)CC(C)N(Cc1ccccc1)[C@H]2C` (some centres not stated) gave a TGI of over 100 µM.
For `Cc1ccc(-n2c(=O)c3nn4c(=O)n(-c5ccc(C)cc5)c(=O)c4nn3c2=O)cc1`, the TGI was over 100 µM.
In the case of `CN(CCCCCl)P(=O)(OCC1=CC(=O)c2ccccc2C1=O)OC[C@H]1O[C@@H](n2cc(F)c(=O)[nH]c2=O)C[C@@H]1O` (some centres not stated), the TGI is reported as 14.3 µM.

These compounds were tested on DU-145 prostate (assay: growth of human tumour cells (NCI), 48 h).
Compound `Cc1ccc(S(=O)(=O)NC(=O)NC(C(=O)O)C(C)C)cc1` (configuration not stated) has a TGI of over 100 µM.
`COc1cc(OC)c2c(c1-c1ccc(C)cc1)CC(C)N(Cc1ccccc1)[C@H]2C` (some centres not stated) gave a TGI of over 100 µM.
`Cc1ccc(-n2c(=O)c3nn4c(=O)n(-c5ccc(C)cc5)c(=O)c4nn3c2=O)cc1` gave a TGI of over 100 µM.
`CN(CCCCCl)P(=O)(OCC1=CC(=O)c2ccccc2C1=O)OC[C@H]1O[C@@H](n2cc(F)c(=O)[nH]c2=O)C[C@@H]1O` (some centres not stated) showed a TGI of 5.53 µM.

Each compound was assayed on SK-MEL-28 melanoma (assay: growth of human tumour cells (NCI), 48 h).
`Cc1ccc(S(=O)(=O)NC(=O)NC(C(=O)O)C(C)C)cc1` (configuration not stated) gave a TGI of over 100 µM.
With `Cc1nn(C(=O)c2ccccc2O)c2c1C(c1ccc3ccccc3c1O)SC(N)=N2` (configuration not stated) the TGI was over 10 µM.
With `COc1cc(OC)c2c(c1-c1ccc(C)cc1)CC(C)N(Cc1ccccc1)[C@H]2C` (some centres not stated) the TGI was over 100 µM.
`Cc1ccc(-n2c(=O)c3nn4c(=O)n(-c5ccc(C)cc5)c(=O)c4nn3c2=O)cc1` was tested, and the TGI was over 100 µM.
Compound `CN(CCCCCl)P(=O)(OCC1=CC(=O)c2ccccc2C1=O)OC[C@H]1O[C@@H](n2cc(F)c(=O)[nH]c2=O)C[C@@H]1O` (some centres not stated) has a TGI of 23.8 µM.

These compounds were tested on NCI-H226 lung (assay: growth of human tumour cells (NCI), 48 h).
With `Cc1nn(C(=O)c2ccccc2O)c2c1C(c1ccc3ccccc3c1O)SC(N)=N2` (configuration not stated) the TGI was over 10 µM.
`COc1cc(OC)c2c(c1-c1ccc(C)cc1)CC(C)N(Cc1ccccc1)[C@H]2C` (some centres not stated) was tested, and the TGI was over 100 µM.
`Cc1ccc(-n2c(=O)c3nn4c(=O)n(-c5ccc(C)cc5)c(=O)c4nn3c2=O)cc1` showed a TGI of over 100 µM.
For `CN(CCCCCl)P(=O)(OCC1=CC(=O)c2ccccc2C1=O)OC[C@H]1O[C@@H](n2cc(F)c(=O)[nH]c2=O)C[C@@H]1O` (some centres not stated), the TGI was 21 µM.

What follows are compounds tested on PC-3 prostate (assay: growth of human tumour cells (NCI), 48 h).
For `Cc1ccc(S(=O)(=O)NC(=O)NC(C(=O)O)C(C)C)cc1` (configuration not stated), the TGI was over 100 µM.
For `Cc1nn(C(=O)c2ccccc2O)c2c1C(c1ccc3ccccc3c1O)SC(N)=N2` (configuration not stated), the TGI was over 10 µM.
`COc1cc(OC)c2c(c1-c1ccc(C)cc1)CC(C)N(Cc1ccccc1)[C@H]2C` (some centres not stated) gave a TGI of over 100 µM.
In the case of `Cc1ccc(-n2c(=O)c3nn4c(=O)n(-c5ccc(C)cc5)c(=O)c4nn3c2=O)cc1`, the TGI is reported as over 100 µM.
`CN(CCCCCl)P(=O)(OCC1=CC(=O)c2ccccc2C1=O)OC[C@H]1O[C@@H](n2cc(F)c(=O)[nH]c2=O)C[C@@H]1O` (some centres not stated) was tested, and the TGI was 18.8 µM.

What follows are compounds tested on SK-MEL-5 melanoma (assay: growth of human tumour cells (NCI), 48 h).
In the case of `Cc1ccc(S(=O)(=O)NC(=O)NC(C(=O)O)C(C)C)cc1` (configuration not stated), the TGI is reported as over 100 µM.
`Cc1nn(C(=O)c2ccccc2O)c2c1C(c1ccc3ccccc3c1O)SC(N)=N2` (configuration not stated) was tested, and the TGI was 4.76 µM.
In the case of `COc1cc(OC)c2c(c1-c1ccc(C)cc1)CC(C)N(Cc1ccccc1)[C@H]2C` (some centres not stated), the TGI is reported as 51.5 µM.
For `Cc1ccc(-n2c(=O)c3nn4c(=O)n(-c5ccc(C)cc5)c(=O)c4nn3c2=O)cc1`, the TGI was over 100 µM.
`CN(CCCCCl)P(=O)(OCC1=CC(=O)c2ccccc2C1=O)OC[C@H]1O[C@@H](n2cc(F)c(=O)[nH]c2=O)C[C@@H]1O` (some centres not stated) showed a TGI of 0.647 µM.

What follows are compounds tested on KM12 colon (assay: growth of human tumour cells (NCI), 48 h).
`Cc1ccc(S(=O)(=O)NC(=O)NC(C(=O)O)C(C)C)cc1` (configuration not stated) showed a TGI of over 100 µM.
With `Cc1nn(C(=O)c2ccccc2O)c2c1C(c1ccc3ccccc3c1O)SC(N)=N2` (configuration not stated) the TGI was over 10 µM.
`COc1cc(OC)c2c(c1-c1ccc(C)cc1)CC(C)N(Cc1ccccc1)[C@H]2C` (some centres not stated) was tested, and the TGI was over 100 µM.
For `Cc1ccc(-n2c(=O)c3nn4c(=O)n(-c5ccc(C)cc5)c(=O)c4nn3c2=O)cc1`, the TGI was over 100 µM.
In the case of `CN(CCCCCl)P(=O)(OCC1=CC(=O)c2ccccc2C1=O)OC[C@H]1O[C@@H](n2cc(F)c(=O)[nH]c2=O)C[C@@H]1O` (some centres not stated), the TGI is reported as 22.3 µM.

What follows are compounds tested on UACC-257 melanoma (assay: growth of human tumour cells (NCI), 48 h).
`Cc1ccc(S(=O)(=O)NC(=O)NC(C(=O)O)C(C)C)cc1` (configuration not stated) was tested, and the TGI was over 100 µM.
For `Cc1nn(C(=O)c2ccccc2O)c2c1C(c1ccc3ccccc3c1O)SC(N)=N2` (configuration not stated), the TGI was over 10 µM.
With `COc1cc(OC)c2c(c1-c1ccc(C)cc1)CC(C)N(Cc1ccccc1)[C@H]2C` (some centres not stated) the TGI was 68.5 µM.
`Cc1ccc(-n2c(=O)c3nn4c(=O)n(-c5ccc(C)cc5)c(=O)c4nn3c2=O)cc1` gave a TGI of over 100 µM.
Work on `CN(CCCCCl)P(=O)(OCC1=CC(=O)c2ccccc2C1=O)OC[C@H]1O[C@@H](n2cc(F)c(=O)[nH]c2=O)C[C@@H]1O` (some centres not stated) yielded a TGI of 24 µM.

The compounds below were run on OVCAR-8 ovarian (assay: growth of human tumour cells (NCI), 48 h).
Work on `Cc1ccc(S(=O)(=O)NC(=O)NC(C(=O)O)C(C)C)cc1` (configuration not stated) yielded a TGI of over 100 µM.
`Cc1nn(C(=O)c2ccccc2O)c2c1C(c1ccc3ccccc3c1O)SC(N)=N2` (configuration not stated) was tested, and the TGI was over 10 µM.
Compound `COc1cc(OC)c2c(c1-c1ccc(C)cc1)CC(C)N(Cc1ccccc1)[C@H]2C` (some centres not stated) has a TGI of over 100 µM.
For `Cc1ccc(-n2c(=O)c3nn4c(=O)n(-c5ccc(C)cc5)c(=O)c4nn3c2=O)cc1`, the TGI was over 100 µM.
With `CN(CCCCCl)P(=O)(OCC1=CC(=O)c2ccccc2C1=O)OC[C@H]1O[C@@H](n2cc(F)c(=O)[nH]c2=O)C[C@@H]1O` (some centres not stated) the TGI was 15.7 µM.

What follows are compounds tested on U251 CNS (assay: growth of human tumour cells (NCI), 48 h).
`Cc1ccc(S(=O)(=O)NC(=O)NC(C(=O)O)C(C)C)cc1` (configuration not stated) gave a TGI of over 100 µM.
For `Cc1nn(C(=O)c2ccccc2O)c2c1C(c1ccc3ccccc3c1O)SC(N)=N2` (configuration not stated), the TGI was over 10 µM.
`Cc1ccc(-n2c(=O)c3nn4c(=O)n(-c5ccc(C)cc5)c(=O)c4nn3c2=O)cc1` showed a TGI of over 100 µM.
